Laboratory results: US12514894B2, “Traditional Chinese medicine composition for preventing and treating diabetes, traditional Chinese medicine preparation, and use thereof” (ZHEJIANG CHINESE MEDICAL UNIVERSITY, priority 2022, dated 2026)
Where two headings read alike, the source gives them in different places.

Columns and labels:
[1] = tested on: mouse bone marrow polychromatic erythrocytes (PCEs); settings: CP 0.04 g/(kg · BW)
Protocol: The test solutions of each dose group were prepared by diluting 2.5, 5.0, and 10.0 mL of TCM decoction to 20 mL with purified water, respectively (each equivalent to 25, 50, and 100 times the recommended daily intake of an adult). For a positive control, 0.04 g of cyclophosphamide (CP) was diluted with purified water to 20 mL for later use. Fifty ICR mice weighing 25.1-30.0 g were randomly divided into three sample dose groups of 2.5, 5.0 and 10.0 mL/(kg·BW), a solvent control group (purified water) and a positive control group [CP 0.04 g/(kg·BW)] by gender and body weight, with 10 mice in each group, half male and half female. The gavage capacity was 20 mL/(kg·BW) each time, and the femoral bone marrow was suspended in calf serum for direct smear, methanol fixation, and Giemsa staining 6 h after the second gastric gavage. […] The number of normochromatic erythrocytes (NCEs) observed was counted while 200 PCEs per animal was observed. The ratio of both (PCE/NCE) was calculated. The results are as follows (see Table 1).

mouse sperm = settings: CP 0.04 g/(kg · BW), 5 days gavage, day 35
Protocol: The dose planning and preparation methods of the positive control and samples are shown in the in vivo micronucleus assay in mouse bone marrow. Twenty-five healthy male ICR mice weighing 25.3-29.8 g were randomly divided into three sample dose groups of 2.5, 5.0 and 10.0 mL/(kg·BW), a solvent control group (purified water), and a positive control group [CP 0.04 g/(kg-BW)] by body weight, with five mice in each group. Animals in each group were given gastric gavage once a day for five consecutive days, and the gavage capacity was 20 mL/(kg·BW). At 35 days after the first administration of the test solution, the mice were sacrificed, bilateral epididymides were removed, and the epididymides were cut longitudinally with ophthalmic scissors, filtered, smeared, dried, fixed with methanol, stained with 2% (m:V) eosin, and microscopically observed.

[2] = tested on: Salmonella typhimurium TA97a; assay: Ames test, strain TA97a; type: cell-based; settings: Test 2
Protocol: (§1) The TCM decoction (20 mL) was sterilized at 121° C. for 20 min as a test solution. During the test, 0.1 mL of the test solution was added to each dish in the highest dose group, namely 5 μL/dish, and there was no contamination or inhibition during the pre-test. In the formal test, the test solution in the highest dose group was serially diluted 5 times with sterile purified water successively, and prepared into four test solutions with doses of 1, 0.2, 0.04, and 0.008 μL/dish, and five sample dose groups were formed. In addition, a solvent control group (sterile purified water), a blank control group (spontaneous reverse mutation group) and four positive control groups were set up. The solvents and dosages required for the preparation of positive controls sodium azide, Dexon, 2-aminofluorene and 1,8-dihydroxyanthraquinone are shown in Table 1. Sequentially, 0.1 mL each of the fresh enrichment broth of tester strain and the test solution were added into a top-layer culture medium held in a 45° C. water bath, 0.5 mL of 10% (V:V) S9 mixture was added when activated, and an equal volume of 0.2 mol/L pH7.4 phosphate buffer saline (PBS) was added without activation; after mixing well, the mixture was rapidly poured onto the bottom-layer culture medium, and the plate was rotated to uniformly distribute the top-layer culture medium on the bottom layer. […]

[3] = tested on: Salmonella typhimurium TA98; assay: Ames test, strain TA98; type: cell-based; settings: Test 2
Protocol: as §1

[4] = tested on: Salmonella typhimurium TA100; assay: Ames test, strain TA100; type: cell-based; settings: Test 2
Protocol: as §1

[5] = tested on: Salmonella typhimurium TA102; assay: Ames test, strain TA102; type: cell-based; settings: Test 2
Protocol: as §1

[6] = tested on: standard tester strains TA97a, TA98, TA100, and TA102; assay: Ames test, conclusion over the four tester strains; type: cell-based, Salmonella typhimurium; settings: each of four strains, regardless of addition of S9, two duplicate tests
Protocol: as §1

[7] = tested on: SD rats with diabetes of dampness-heat pattern; assay: Lowering of blood glucose in rats with type 2 diabetes; type: in vivo, rat
Text: Dose Planning: Low-, medium- and high-dose groups were designed in this experiment: 10 g (crude drug)/kg, 20 g (crude drug)/kg, and 40 g (crude drug)/kg. The dose groups were given by gastric gavage for 30 consecutive days, and the control group was given an equal quantity of normal saline.
SD rats with diabetes of dampness-heat pattern were modeled with reference to the 2014 edition of the Ideas and Methods of Clinical-mimetic Research on Integrated Animal Models of Disease and Syndrome. The specific method was as follows: Sixty specific pathogen-free (SPF) grade male Sprague-Dawley (SD) rats weighing 160-180 g were selected, 10 male SD rats were assigned to a normal control group, and the rest 50 ones were fasted but not deprived of water for 16-18 h (21:00 PM to 14:00 PM the next day); STZ was prepared into a 1.0% solution with […] citric acid buffer (pH=4.2, 4° C.), and the rats were fed with high-sugar and high-fat diet on Day 3 after tail vein injection of 10 mg kg^−1 STZ; the type 2 diabetes model was replicated by continuous high-sugar and high-fat feeding for 6-8 weeks (impaired glucose tolerance was deemed as successful modeling), and the normal control group was fed with normal diet. Later, after all rats were fed with normal animal feed and normally drank water for one week, they fasted but not deprived of water for 12 h; the tails of the rats were disinfected with alcohol, and the fasting plasma glucose of the rats was measured by tail vein blood sampling. […] After the successful modeling, the rats were given normal animal feed and access to water ad libitum for one week, so as to detect the stability of the model.
After the successful modeling, 50 rats were divided into a model control group, a positive control group, a low-dose TCM decoction group, a medium-dose TCM decoction group, and a high-dose TCM decoction group. Ten rats in the blank control group were given access to ordinary animal feed and water ad libitum, and an equal volume of normal saline was administered daily by gastric gavage. Ten rats in the model control group were given access to ordinary animal feed and water ad libitum, and an equal volume of normal saline was administered daily by gastric gavage. Ten rats in the positive control group were given access to ordinary animal feed and water ad libitum, and 0.25 g/kg metformin was administered daily by gastric gavage. Ten rats in the low-dose TCM decoction group were given access to ordinary animal feed and water ad libitum, and 10 g (crude drug)/kg TCM decoction was administered daily by gastric gavage. Ten rats in the medium-dose TCM decoction group were given access to ordinary animal feed and water ad libitum, and 20 g (crude drug)/kg TCM decoction was administered daily by gastric gavage. Ten rats in the high-dose TCM decoction group were given access to ordinary animal feed and water ad libitum, and 40 g (crude drug)/kg TCM decoction was administered daily by gastric gavage. All rats were fed for a total of 30 days. Rat body weight, fasting plasma glucose, and insulin level were measured before and after SD rat modeling and after gastric gavage.

[8] = 0.25 g/kg metformin daily by gavage, 30 days
[9] = positive control and the three TCM decoction dose groups, P<0.05
[10] = positive control group (0.25 g/kg metformin), baseline
[11] = positive control group (0.25 g/kg metformin), before treatment

## O=P1(N(CCCl)CCCl)NCCCO1 (centres unmarked) [CP, cyclophosphamide]
[1]; female
  Frequency of micronucleated cells: 15.64 ± 5.16 ‰
  Number of micronucleated PCEs: 88 n
  PCE/NCE: 1.02 ± 0.18
[1]; male
  Frequency of micronucleated cells: 17.57 ± 4.87 ‰
  Number of micronucleated PCEs: 78 n
  PCE/NCE: 1.03 ± 0.16
Mouse sperm
  Abnormality rate: 6.49 ± 0.74 %
  Total number of abnormal sperms: 357 n
  Type of abnormal sperms: Amorphous: 157
  Type of abnormal sperms: Banana-like: 8
  Type of abnormal sperms: Folded: 6
  Type of abnormal sperms: Hookless: 169
  Type of abnormal sperms: Large: 7
  Type of abnormal sperms: Two-head: 3
  Type of abnormal sperms: Two-tailed: 7

## CN(C)C(=N)N=C(N)N [Positive control, metformin]
[2]; +S9, positive control
  number of revertant colonies: 1061 ± 84
[2]; −S9, positive control
  number of revertant colonies: 1027 ± 98
[3]; TA98, +S9, positive control
  number of revertant colonies: 1049 ± 94
[3]; TA98, −S9, positive control
  number of revertant colonies: 1091 ± 78
[4]; TA100, +S9, positive control
  number of revertant colonies: 1171 ± 91
[4]; TA100, −S9, positive control
  number of revertant colonies: 987 ± 117
[5]; TA102, +S9, positive control
  number of revertant colonies: 1085 ± 91
[5]; TA102, −S9, positive control
  number of revertant colonies: 973 ± 76
[6]
  number of revertant colonies compared with the solvent control: more than twice that of the corresponding solvent control
[7]; [8]
  Body weight before administration: 435.4 ± 25.3 g
  fasting plasma glucose: Blood glucose after administration: 6.65 ± 1.39 mmol/L
  insulin level After administration: 44.13 ± 5.42 uIU/mL
[7]; [9]
  body weight after administration compared with model control group: lower than that in the model control group
  fasting plasma glucose after administration compared with after modeling: significantly lower than that after modeling
  insulin levels after administration compared with after modeling: significantly lower than those after modeling
[7]; [10]
  Body weight before modeling: 166.3 ± 10.8 g
  fasting plasma glucose: Blood glucose before modeling: 6.02 ± 0.48 mmol/L
[7]; [11]
  Body weight after modeling: 463.5 ± 17.3 g
  fasting plasma glucose: Blood glucose after modeling: 20.15 ± 3.23 mmol/L
  insulin level Before administration: 73.45 ± 9.45 uIU/mL
